US12478602B2, “Method for treating a disorder” (priority 2023, dated 2025)
Read-outs that look alike come from different tables or passages of the source.

Tests used:
[1] = test system: mice having autism spectrum disorder; experiment: Spatial memory experiment (Y-maze test); format: in vivo, mouse; settings: 180, 300, 480 or 600 mg/kg orally for 28 days; with increasing dosage
Method: Mice having autism spectrum disorder were created by the same method as in Example 1.1. The 3-week-old male mice having autism spectrum disorder were orally injected with 180, 300, 480, or 600 mg/kg of L-serine for 28 days and then subjected to a spatial memory test. Normal mice were used as a control group. Eight mice were used for each experimental group. The spatial working memory of the mice was evaluated through the Y-maze test. As the administration dosage of L-serine increased, the value of spontaneous alteration, which is a measure of spatial memory, increased (see FIG. 7).

[2] = test system: mice having autism spectrum disorder; experiment: Individual recognition (novel object recognition, NOR) experiment; format: in vivo, mouse; settings: 180, 300, 480 or 600 mg/kg/day orally for 21 days; with increasing dosage
Method: Mice having autism spectrum disorder were created by the same method as in Example 1.1. The 3-week-old male mice having autism spectrum disorder were orally injected with 180, 300, 480, or 600 mg/kg/day of L-serine for 21 days and then subjected to an individual recognition test. Eight mice were used for each experimental group. Mice tend to be more interested in a novel object than a familiar object. Therefore, a novel object recognition (NOR) experiment, which is an experiment for checking whether or not mice recognize a novel object, was carried out.

[3] = test system: children having autism spectrum disorder; experiment: Phase 2 clinical trial, effectiveness; format: in vivo, human; settings: high-dose short-term administration group, 24 weeks vs 12 weeks
Method: 151 children having autism spectrum disorder were subjected to a multicentered, randomly assigned, double-blinded, placebo-controlled, and therapeutically exploratory phase 2 clinical trial for exploring the effectiveness and evaluating the safety of an AST-001 syrup. An AST-001 syrup used in a clinical trial is a colorless or pale yellow clear syrup which is aromatic and has sweetness, and it comprises, as a main ingredient, 10 g of L-serine in about 100 mL of this drug and is packaged in aluminum foil at a dosage of 2 g/20 mL. The composition of the AST-001 syrup is such that the AST-001 syrup comprises L-serine as a main ingredient, sodium carboxymethyl cellulose as a thickener, methyl paraoxybenzoate and propyl paraoxybenzoate as preservatives, a citric acid hydrate and a potassium citrate hydrate as pH adjusting agents, white sugar and a D-sorbitol solution as sweetening agents, an apple mint flavor SJ-G (22005221) as a fragrance imparting agent, and purified water. […] After the extension study period of 12 weeks ended, the effectiveness and adverse events in patients were followed up and monitored for 12 weeks (that is, follow-up period). […] The K-VABS-II Adaptive Behavior Composite (K-VABS-II ABC) score, which is a primary evaluation variable, is a calculated score (standard score) for the main domain, where the higher score means the higher level of adaptive behavior.

[4] = test system: pediatric patients having autism spectrum disorder; experiment: Clinical trial of 52-week continuous administration, safety
[5] = test system: dopamine neurons in the midbrain VTA region; experiment: Patch clamp of spontaneous action potential (dopamine secretion normalization); format: in vivo, mouse; settings: 250 mg/kg to 500 mg/kg
Method: A mouse model of autism spectrum disorder was created with the method described in Example 1.1. The 3-week-old male mice having autism spectrum disorder were divided into a group (n=6) orally injected with 250 mg/kg of AST-001 for 2 weeks and a group (n=6) orally injected with 500 mg/kg of AST-001 for 2 weeks, and were orally administered with AST-001. The 3-week-old male normal mouse group and the autism spectrum disorder mouse group (n=6) were orally administered with water once a day for 2 weeks and then used as a control group (n=6) in the behavioral experiment. The spontaneous action potential of dopamine neurons in the midbrain VTA region of the 5-week-old normal mice and the 5-week-old mice having autism spectrum disorder was checked with a patch clamp. It turned out that mice having autism spectrum disorder show a reduced firing rate of the spontaneous action potential as compared with the normal mice (see FIG. 3A). As a result, dopamine secretion has been reduced in a mouse having autism spectrum disorder, and it can be seen that the reduced dopamine secretion has caused behavioral abnormalities related to the dopamine pathway, such as attention, reward, and cognition.

[6] = test system: pediatric patients having autism spectrum disorder; settings: human, in vivo
[7] = Pharmacokinetic experiment in Beagle dog; format: in vivo; settings: for bioavailability / half-life: Beagle, dog, plasma; for bioavailability: po, read-out: bioavailability by the oral administration; for half-life: read-out: drug loss half-life (t1/2) (converted); for AUCinf: fasting
Method: 4 g or 8 g of L-serine was orally or intravenously administered to Beagle dogs (1.8 to 2.6 years old, 8.6 to 11.6 kg, n=20). Blood collection was divided into blood collection before L-serine administration (basal blood collection) and blood collection after administration (main blood collection). During the experiment, the Beagle dogs were maintained in a fasting state, and L-serine concentration in the plasma was analyzed by LC-MS/MS.

N[C@@H](CO)C(=O)O [AST-001, L-serine]
spontaneous alteration [1]: increased
discrimination index (DI) [2]: increased
amount of score change in the K-VABS-II ABC and the main domain, 2DC and CGI-S [3]: significantly improves
serious adverse events and deaths evaluated to be related ([4]; 52-week continuous administration): no serious adverse events and no deaths
COVID-19 infection adverse events ([4]; high dose group): 6 events
COVID-19 infection adverse events ([4]; low dose group): 5 events
dopamine secretion [5]: increases
Adverse event [TEAE], Events [6]: 41
bioavailability ([7]; 4 g per individual): 106%
bioavailability ([7]; 8 g per individual): 84.2%
half-life ([7]; oral 4 g): 3.8 ± 1.4 h
half-life ([7]; oral 8 g): 4.7 ± 1.8 h
AUCinf ([7]; oral 4 g): 628 ± 108 µg·h/mL
AUCinf ([7]; oral 8 g): 1330 µg·h/mL
